Where two headings read alike, the source gives them in different places.
Legend:
[1] = test system: IMQ-induced (TLR7) gene expression in RAW 264.7 cells; test: 3' mRNA sequencing of IMQ-stimulated RAW 264.7 cells; assay type: cell-based, mouse; details: for Expression of IMQ-induced inflammation-associated genes: RAW 264.7, 2 and 4 h; for Differentially expressed genes (DEGs) / Downregulated DEGs / Upregulated DEGs: RAW 264.7, IMQ-stimulated
Experimental: RNA quality was assessed using a TapeStation 4000 system (Agilent Technologies). Libraries were prepared using a QuantSeq 3 mRNA-Seq Library Prep Kit FWD (Lexogen) and sequenced using a NextSeq 550 System (Illumina). Sequences were trimmed using BBDuk and aligned with Bowtie2, and the reads were counted using Bedtools[21]–[23]. Data were normalized using edgeR software (Ebiogen) and analyzed for gene function using the Database for Annotation, Visualization, and Integrated Discovery) and for pathway analysis using KEGG Mapper[24],[25]. RNA-seq data were deposited in the Gene Expression Omnibus database under accession number GSE255890.
Fig. 2 ETI41 and ETI60 inhibit TLR7- and TLR9-dependent downstream signaling. a, b Western blot analysis was used to quantify the protein levels of phosphorylated p-ERK, p-JNK, p38, Iκ-Bα and p65. RAW 264.7 cells were treated with 5 μM or 10 μM of ETI41 or ETI60, followed by exposure to IMQ (2 μg/ml) for 20 or 30 min (a) and ODN2395 (1 μM) for 40 or 50 min (b) respectively. β-Actin served as a loading control for the cytosol, while lamin A/C was utilized as a loading control for the nucleus. c Protein levels of IRF7 were measured after treatment with 5 μM of ETI41 or ETI60, followed by treatment with ODN2395 (1 μM) for 6 or 8 h. d BMDC cells from ex vivo were used to analyze mRNA expression levels of IL-12p40, IFN-β and CD40. Cells were pretreated with ETI41 (0.2 and 1 μM), followed by treatment with ODN2395 (1 μM) for 3 h. All experiments were independently conducted three times. Statistical differences between the induced and other cases were analyzed and verified using a one-tailed Student’s t-test (*P < 0.05, **P < 0.01, ***P < 0.001). e–g The TLR7 agonist IMQ (1 μM) was used in 3’ RNA-seq analysis to induce signaling associated with immune responses in RAW 264.7 cells. […] (e–g) depict changes in gene expression categories without pretreatment (e) after pretreatment with ETI41 (f) or after pretreatment with ETI60 (g) followed by IMQ stimulation. h Heatmaps depicting gene expression patterns within the inflammation and immune response categories (fold change >2.5, P < 0.05) of ETI41 or ETI60, dividing the time after IMQ treatment into 0, 2 and 4 h, respectively. […]

[2] = MTT assay, cell survival in RAW 264.7; assay type: cell-based; details: mouse, RAW 264.7 cell line, read-out: LC50
Experimental: After 24 h, the supernatant was removed, and 500 μg/ml of 3-[4,5-dimethylthiazol-2-yl]-2,5 diphenyl tetrazolium bromide (MTT) solution (Invivogen) was added. After a 3 h incubation, the supernatant was removed, and DMSO was added to dissolve the formazan dye.
(§1) One-tailed paired Student’s t-tests were performed using Microsoft Excel (Microsoft). […] The therapeutic index was calculated as […]. Animal experimental results are expressed as mean ± standard deviation and analyzed using SPSS v.20 (IBM SPSS Statistics). Homogeneity of variance was assessed using Levene’s test.
(§2) Data are from at least three independent experiments (n = 3) and statistical differences between the induced case and other cases were analyzed and verified using a one-tailed Student’s t-test (*P < 0.05, **P < 0.01, ***P < 0.001).

Daudi cells = test: Water-soluble tetrazolium assay, cell viability in Daudi; assay type: cell-based
Experimental: Daudi cells were seeded into 96-well plates at a density of 5 × 10^4 cells per well.
as §1, §2

endosomal TLRs = test: Endosomal TLR-mediated TNF-α production, summary over cell lines; assay type: cell-based; details: dose-dependent, without inducing cytotoxic effects
Experimental: RAW 264.7 and differentiated THP-1 cells were seeded into 96-well plates at 2 × 10^4 cells per well, while Daudi cells were seeded at 5 × 10^4 cells per well. After stabilization for 30 min, cells were stimulated with specific TLR agonists for 4 or 24 h. Supernatants were diluted and transferred to precoated ELISA plates to measure TNF-α secretion using kits from Invitrogen. Optical absorbance was measured using a BioTek Synergy HTX multimode microplate reader, and data were interpolated using BioTek Gen5 software.
TLR activation triggers the NF-κB pathway, resulting in increased production of pro-inflammatory cytokines, such as TNF-α and IL-6.

| Structure (SMILES) | Expression of IMQ-induced inflammation-associated genes [1] | Differentially expressed genes (DEGs) [1] | Downregulated DEGs [1] | Upregulated DEGs [1] | CC50 at 24 h ([2]; RAW 264.7 cells) | Cell viability (LD50), cytotoxicity (Daudi cells) | Toxicity tests (in vivo) | TNF-α production by RAW 264.7 and Daudi cells (endosomal TLRs) | CC50 at 24 h [2] | Toxicity tests (doses ranging from 150 to 300 mg/kg) |
| --- | --- | --- | --- | --- | --- | --- | --- | --- | --- | --- |
| COc1ccc2c3c(N)c4c(nc3n(CCCN(C)C)c2c1)CCCC4 [ETI60] | markedly reduced | 727 | 380 | 347 | 51.2 µM | 38,410 nM | confirmed their safety | effectively inhibited | – | – |
| Cc1cc2c(N)c3c(nc2n1CCCN(C)C)CCCCCC3 [ETI41] | markedly reduced | 509 | 296 | 213 | – | >200,000 nM | – | effectively inhibited | 67.2 µM | confirmed their safety |
